Test results taken from the SangsterLogP compilation.

Row | logP | SMILES
1 | 3.75 | C/C=C(/C)C(=O)O[C@@H]1[C@H](OC(C)=O)c2c(ccc3ccc(=O)oc23)OC1(C)C
2 | 3.56 | C/C=C(/C)C(=O)O[C@H]1[C@@H](O)c2c(ccc3ccc(=O)oc23)OC1(C)C
3 | 4.41 | C/C=C(\C)C(=O)OC1c2c(ccc3ccc(=O)oc23)OC(C)(C)[C@@H]1OC(=O)/C(C)=C/C (stereo not given in full)
4 | 3.29 | C/C=C(/C)C(=O)O[C@H]1C[C@@](C)(O)C(=O)[C@@H](OC(=O)/C(C)=C\C)[C@@]2(C)CC[C@@](O)(C(C)C)[C@@H]12

Second part, the compound before the results:

Row | SMILES | logP
5 | O=c1cc(O)c2ccccc2o1 | 1.42
6 | CC(C)=CCOc1ccc2ccc(=O)oc2c1 | 3.91
7 | COc1cc2ccc(=O)oc2cc1OC | 2.45
8 | COc1ccc2c(C)cc(=O)oc2c1 | 3.16
9 | COc1ccc2ccc(=O)oc2c1CC1OC1(C)C (stereo not given) | 3.03
10 | COc1c2ccoc2c(OCC=C(C)C)c2oc(=O)ccc12 | 3.86
